From BindingDB's records for doi:10.7270/Q2Q81BH4 (Nmmlsc, 2009)

Target: T1, Mitogen-activated protein kinase kinase kinase 3 (Homo sapiens, UniProt Q99759)
T1 sequence (Q99759 whole entry): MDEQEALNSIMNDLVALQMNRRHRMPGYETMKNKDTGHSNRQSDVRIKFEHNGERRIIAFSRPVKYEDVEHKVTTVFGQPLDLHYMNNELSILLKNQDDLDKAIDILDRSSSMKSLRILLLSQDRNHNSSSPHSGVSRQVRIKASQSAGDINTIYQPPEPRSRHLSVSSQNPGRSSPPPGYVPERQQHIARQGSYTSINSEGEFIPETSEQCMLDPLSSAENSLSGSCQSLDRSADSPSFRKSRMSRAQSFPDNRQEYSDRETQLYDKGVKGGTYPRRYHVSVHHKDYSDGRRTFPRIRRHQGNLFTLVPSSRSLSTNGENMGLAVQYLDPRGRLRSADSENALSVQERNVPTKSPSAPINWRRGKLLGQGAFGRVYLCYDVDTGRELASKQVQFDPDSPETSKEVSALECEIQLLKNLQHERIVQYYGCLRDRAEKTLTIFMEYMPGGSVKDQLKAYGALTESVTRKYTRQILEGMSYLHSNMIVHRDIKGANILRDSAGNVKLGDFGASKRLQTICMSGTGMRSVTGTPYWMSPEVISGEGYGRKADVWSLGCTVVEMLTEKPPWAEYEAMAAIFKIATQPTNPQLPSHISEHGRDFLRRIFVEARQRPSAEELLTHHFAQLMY
Experiment: inhibitors of MEK5 binding to MEKK3, SAR follow-up, multiplex assay, wild-type MEKK3 (AID 2145)

Structure (SMILES)	EC50	EC50 (inactive by the depositor's call)
COc1cc([N+](=O)[O-])ccc1-c1nn2c(-c3ccco3)nnc2s1 [3-(2-furanyl)-6-(2-methoxy-4-nitrophenyl)-[1,2,4]triazolo[3,4-b][1,3,4]thiadiazole]	> 30 µM	–
c1ccc(-c2nnc3sc(-c4ccc[nH]4)nn23)nc1	> 30 µM	–
c1coc(-c2nnc3sc(C4CCCCC4)nn23)c1 [6-cyclohexyl-3-(2-furanyl)-[1,2,4]triazolo[3,4-b][1,3,4]thiadiazole]	> 30 µM	–
CCOc1cccc(-c2nn3c(-c4cccs4)nnc3s2)c1 [6-(3-ethoxyphenyl)-3-thiophen-2-yl-[1,2,4]triazolo[3,4-b][1,3,4]thiadiazole]	–	1.1 µM
COc1cc([N+](=O)[O-])ccc1-c1nn2c(-c3ccccn3)nnc2s1	> 30 µM	–
COc1ccc(-c2nn3c(-c4ccccn4)nnc3s2)cc1OC [6-(3,4-dimethoxyphenyl)-3-(2-pyridinyl)-[1,2,4]triazolo[3,4-b][1,3,4]thiadiazole]	> 30 µM	–
COc1cccc(-c2nn3c(-c4ccccn4)nnc3s2)c1	> 30 µM	–
c1coc(-c2nnc3sc(C4CCCCCC4)nn23)c1 [6-cycloheptyl-3-(2-furanyl)-[1,2,4]triazolo[3,4-b][1,3,4]thiadiazole]	> 30 µM	–
c1ccc(-c2nnc3sc(C4CCCCC4)nn23)nc1 [VU0364704-1]	> 30 µM	–
c1ccc(-c2nnc3sc(C4CCCCCC4)nn23)nc1	> 30 µM	–
c1csc(Cc2nn3c(-c4ccncc4)nnc3s2)c1	> 30 µM	–
c1c[nH]c(-c2nn3c(-c4ccco4)nnc3s2)c1 [(6Z)-3-(2-furanyl)-6-(2-pyrrolylidene)-5H-[1,2,4]triazolo[3,4-b][1,3,4]thiadiazole]	> 30 µM	–
CCOc1cccc(-c2nn3c(-c4ccco4)nnc3s2)c1 [6-(3-ethoxyphenyl)-3-(2-furanyl)-[1,2,4]triazolo[3,4-b][1,3,4]thiadiazole]	> 30 µM	–
